The subject of data set [1] is SIV. As to conditions: prophylactically, i.e. pre-exposure administered; cited from earlier work.
The subject of another data set is HIV-1, HIV-2 or SIV. As to conditions: until shortly after "treatment" is concluded; cited from earlier work.
Data set [2] has as its system HIV. The following applies: rapid and sustained postexposure administration of large doses; cited from earlier work.
Data set [3] has as its system lentivirus infections with HIV or SIV. The following applies: administered prophylactically, prior to exposure to HIV or SIV; cited from earlier work.
Data set [4] has as its system HIV. The following applies: HIV-infected individuals; cited from earlier work.
The nature of data set [5]: Cell culture tolerance in MT4 cells. In kind it is cell-based, human. The following applies: human; cell culture, MT4 cells; read-out: ID50 in MT4 cells.
Another data set relates to MT4 cells. In words: Cell culture tolerance in MT4 cells. The class given is cell-based, human. The following applies: cell culture results.
A short description of data set [6]: In vivo simian experiments, short term toxicity. The following applies: 30 mg/kg/day.
Data set [7] has as its system SIV. The data set can be described thus: Postexposure prevention of SIV infection in macaque monkeys (Example 2, Table 1). In kind it is in vivo. The following applies: for Detected during 30 days post virus inoculation: SIV Ag / Detected during 30 days post virus inoculation: SIV-2 / SIV antibody detected during 30 days post inoculation: 10 mg/kg s.c. three times per day. The protocol: Inoculation: The control and test animals, 2 year old macaque monkeys were inoculated […] with either a moderate (10 monkey infectious doses MID50, as determined by Bottiger et al Antiviral Chemistry and Chemotherapy 1992;3:269-271) or a high (100 MID50) dose preparation of SIV in phosphate buffer, as listed in Table 1 below.
One or three hours after i.v. inoculation with SIV, paired test animals were injected subcutaneously with 10 mg/kg of the preparation of Example 1, repeated three times per day for 1 day or 3 days as listed in table 1. Blood samples were extracted from the test and control animals on days 0, 17, 23 and 30 for determination of SIV antibody, SIV p26 antigen and presence of infective virus. The methods have been described by Bottiger et al, AIDS Res Hum Retroviruses 1992;7:1235-1238.

Data set [8] has as its system SIV. The following applies: administered from 8 hours prior to virus inoculation; cited from earlier work.
The mark [9] stands for this setting: 10 MID50, treatment start 1 hour post inoculation, duration 1 day, monkeys 45, 46.
The mark [10] stands for this setting: 10 MID50, treatment start 1 hour post inoculation, duration 3 days, monkeys 48, 49.
The mark [11] stands for this setting: 10 MID50, treatment start 3 hours post inoculation, duration 3 days, monkeys 54, 57.
Where [12] appears, read: 100 MID50, treatment start 1 hour post inoculation, duration 3 days, monkeys 53, 58.

Values after ≈ are worked out from the molar mass of the structure shown.

As to `Cc1cn([C@H]2C[C@H](N=[N+]=[N-])[C@@H](CO)O2)c(=O)[nH]c1=O` [AZT, zidovudine], the “prevention of infection with SIV” value with SIV [1] is on record as “inability to prevent infection with SIV”. Also, the delay of seroconversion entry in the data set with HIV-1, HIV-2 or SIV was “at most appear to delay seroconversion”. Besides, the “published accounts of seroconversion after accidental exposure to HIV” value in the data set on HIV [2] is 13 published accounts. Moreover, the “effect on pattern of lentivirus infections” value in data set [3] was “may alter the pattern of lentivirus infections”. The “suppression of AIDS development or reducing viral loads” value with HIV [4] is listed as “clinically significant action”.
On to `Nc1ccn([C@H]2C[C@H](CO)[C@@H](CO)O2)c(=O)n1` [Example 1, 1-[2',3'-dideoxy-3'-C-(hydroxymethyl)-β-D-erythro-pentofuranosyl]-cytosine], for which, in data set [5], the CC50 is approximately 45 µg/mL (≈ 187 µM). In the data set on MT4 cells, the “tolerance by human cells” value was “generally well tolerated”. Besides, the “toxicity short term in simian experiments” value in data set [6] is given as “no detectable toxicity”. The “Detected during 30 days post virus inoculation: SIV Ag” value in the data set on SIV [7] (setting [9]), with SIV [7] (setting [10]), in the data set with SIV [7] (setting [11]) and in the data set with SIV [7] (setting [12]) was “-” throughout. Further, the “Detected during 30 days post virus inoculation: SIV-2” value in the data set with SIV [7] (setting [9]), in the data set with SIV [7] (setting [10]), in the data set with SIV [7] (setting [11]) and in the data set with SIV [7] (setting [12]) was “-” in each case. Besides, the “SIV antibody detected during 30 days post inoculation” value in the data set with SIV [7] (setting [9]), in the data set on SIV [7] (setting [10]), in the data set with SIV [7] (setting [11]) and with SIV [7] (setting [12]) was “-” each time. Further, in the data set on SIV [7] (3 days treatment, 100 infectious doses, animals 53 and 58), the “protection from 100 infectious doses of SIV” value is reported as “protected the test animals from the very high dose of 100 infectious doses of SIV”. Moreover, in the data set with SIV [7] (all test animals, viral antigen, antibody or virus culture in blood), the “prevention of infection establishing itself in the test animals” value was “prevented the infection establishing itself in the test animals”. The “SIV antibody or SIV antigen in test animals” value with SIV [7] (each test animal, 30 day period monitored) is listed as “free from detectable SIV antibody or SIV antigen”. In addition, in the data set on SIV [7] (each test animal, day 30), the “infectious virus cultivated from blood samples” value is reported as “infectious virus could not be cultivated”. Moreover, the “protection from 10 infectious doses of SIV” value in the data set on SIV [7] (single day of treatment, 10 infectious doses) is given as “protected the test animals from 10 infectious doses of SIV”.
Turning to `Cc1cn([C@H]2C[C@H](F)[C@@H](CO)O2)c(=O)[nH]c1=O` [FLT, 3'-fluorothymidine], in the data set with SIV [8], the “protection against SIV” value is “may provide some protection against SIV”.
Turning to `O=C(O)P(=O)(O)O` [PFA], in the data set with SIV [1], the “prevention of infection with SIV” value is “inability to prevent infection with SIV”.
As to `Cc1cn([C@H]2C=C[C@@H](CO)O2)c(=O)[nH]c1=O` [d4T], the “prevention of infection with SIV” value in the data set with SIV [1] was “inability to prevent infection with SIV”.
Turning to `Nc1ccn([C@H]2CC[C@@H](CO)O2)c(=O)n1` [ddC], in the data set on SIV [1], the “prevention of infection with SIV” value is on record as “inability to prevent infection with SIV”.

The record behind these values is patent US5612319A, “Postexposure prevention of HIV infection or seroconversion” (Medivir AB, priority 1994, dated 1997).
